From US20230158104A1, “COMPOUNDS FOR USE IN AUTOIMMUNE CONDITIONS” (priority 2020, published 2023)
Several values for one entry are separate records, joined by “and”; a condition that tells them apart may be missing. Equal values may be shown once. Entries after “also recorded” stand apart in the source; their conditions may differ. Read-outs that look alike come from different tables or passages of the source. Marks after values point to notes of the source that are not given here.

Assays:
[1] = tested on: alveolar macrophages; settings: mice, plitidepsin 1 mg/kg i.v. with LPS 20 μg/kg i.p., three hours
[2] = Stability of plitidepsin drug product and reconstituted solution; assay type: physicochemical
Method: Plitidepsin will be labelled with the study protocol code, the batch number, the content, the expiry date, the storage conditions, the name of the investigator and the sponsor. The study drug will be labelled in accordance with Annex 13 of the European Good Manufacturing Practices. Plitidepsin should be stored between 2° C. and 8° C. and the vials should be kept in the outer carton to protect them from light. The drug in these conditions is stable for 60 months.
After reconstitution of the 2 mg plitidepsin vial with 4 ml of the solution for reconstitution of macrogolglycerol ricinoleate/ethanol/water for injection, the reconstituted solution should be diluted and used immediately after preparation. If not used immediately, storage times and conditions until use are the responsibility of the user. […] If storage is required before administration, solutions should be stored refrigerated and protected from light and should be used within 24 hours after reconstitution.

[3] = Pharmacokinetics, plasma and lung, rat; settings: rats, single intravenous dose 0.2 mg/kg
[4] = Pharmacokinetics, plasma and lung, mouse
[5] = tested on: COVID-19; assay type: in vivo, human
Method: All patients received the following prophylactic medications 20-30 minutes before the infusion of plitidepsin: • Diphenhydramine hydrochloride 25 mg iv or equivalent. • Ranitidine 50 mg iv or equivalent. • Dexamethasone 6.6 mg intravenous. • Ondansetron 8 mg i.v. in slow infusion of 15 minutes or equivalent.
Patients included in the study will receive treatment for 3 days.

[6] = tested on: NF-κB; test: NF-κB transactivation luciferase assay; assay type: cell-based, human; settings: 100 nM plitidepsin, 6 hours, with poly I:C, LPS-B5 or Resiquimod; THP-1 NF-κB-Luc cells
Method: Luminescence was measured in a Perkin-Elmer EnVision reader.

[7] = tested on: TLR-trigged cytokine secretion in THP-1 cells; test: ELISA assays for secreted cytokines, TLR ligands combined with plitidepsin; settings: 100 nM plitidepsin with TLR ligands, 6 hours, THP-1, ELISA
Method: To investigate whether plitidepsin inhibits the TLR-trigged cytokine secretion, we treated THP-1 cells with 100 ng/mL TNFα (an activator of NF-κB), 500 μg/mL poly I:C (TLR3 ligand), 10 μg/mL LPS-B5 (TLR4 ligand) or 10 μg/mL Resiquimod (TLR-7/8 ligand). The compounds were used either alone (grey bars) or combined with 100 nM of plitidepsin (red bars) for 6 hours. We compared the variations in cytokine secretion in the cell culture supernatants between the different treatments by ELISA assays.
THP1-NFκB-LUC cell cultures were treated as described above, and the culture medium was sampled at 6 hours post-treatment to assay for secreted cytokines by ELISA. Media samples were stored at 4-C. IL-8, IL-1β, IL-6 and TNFα protein secretion into culture medium was quantitated using highly specific and sensitive ELISA kits. Human IL-lb, human IL-6, human IL-8 and human TNF OptEIA™ ELISA kits were obtained from BD Biosciences and performed as described by the manufacturer. The data presented are the average of three independent experiments performed in triplicate.

[8] = tested on: LPS-trigged cytokine secretion in alveolar macrophages; test: Ex vivo LPS-B5-triggered cytokine secretion in bronchoalveolar lavage cells of treated mice; settings: mice 1 mg/kg i.v.
Method: To that end mice were injected i.v. with plitidepsin (1 mg/kg) or vehicle and 12 hours after administration bronchoalveolar lavage fluid (BAL) was collected. Cells were plated and treated ex-vivo or not with 15 μg/mL of LPS-B5 for 3 or 6 hours and secreted cytokines were measured.
Mice were randomized into groups of five animals to receive the treatments. Mice were injected intra venous (i.v.) with plitidepsin (1 mg/kg) and 12 hours after administration were euthanized. Control group received plitidepsin vehicle diluted with saline (Cremophor/Ethanol/Water). Bronchoalveolar lavage fluid (BAL) of each group was collected and centrifugated to obtain bronchoalveolar lavage cells. Cells underwent red blood cell lysis (Roche) and were plated and treated ex-vivo or not with 15 μg/mL of LPS-B5 for 3 or 6 hours. Secreted cytokines were measured using highly specific and sensitive ELISA kits. Mouse IL-6, mouse IL-10 and mouse TNF DuoSet ELISA kits were obtained from R&D Systems and performed as described by the manufacturer.

[9] = tested on: cytokine secretion induced by Resiquimod in THP-1 cells; test: Plitidepsin pre-treatment of THP-1 NFκB luc cells before Resiquimod stimulus; assay type: cell-based, human; settings: 1, 10 or 50 nM added 8 hours before Resiquimod 2.5 or 5 μg/mL; measured at 24 hours
Method: At 0 time THP-1 cells were treated with 1 nM, 10 nM or 50 nM APL or DMSO (0.2%) followed by stimulus with Resiquimod at 2.5 or 5 μg/mL at 8 hours. At 24 hours cytokines or cell viability was measured.
In a further in vitro experiment, the effect of plitidepsin (APL) pre-treatment on THP-1 cells was studied. Using a THP-1 NFκB luc line, 1, 10 or 50 nM of APL or DMSO (0.2%) was added 8 hours before stimulus with Resiquimod (RQ) at 2.5 or 5 μg/mL. RQ is a TLR7/8 agonist and mimics ssRNA. At 24 hours the level of cytokines or cell viability was measured.

[10] = tested on: THP-1 cells; test: MTT cell proliferation assay (cytotoxicity control); assay type: cell-based, human; settings: activators combined with 100 nM plitidepsin, 6 hours
[11] = Pharmacokinetics, plasma and lung, hamster; settings: hamsters, single intravenous dose 0.2 mg/kg
[12] = Pharmacokinetics in patients; assay type: in vivo, Human
[13] = tested on: resiquimod (RQ)-trigged cytokine secretion in BALF; test: Resiquimod intranasal inflammation model, TNFα in BALF; settings: mice 1 mg/kg i.v. 1 hour before Resiquimod 50 μg/mouse intranasal; 1 or 3 hours after RQ
Method: We further checked whether plitidepsin inhibits resiquimod (RQ)-trigged cytokine secretion in BALF. Mice were injected i.v. with plitidepsin (1 mg/kg) or vehicle 1 hour before a 50 μg/mouse intranasal inoculation with resiquimod. At 1 or 3 hours after intranasal administration of RQ bronchoalveolar lavage fluid (BALF) was collected. Cells were plated and secreted cytokines were measured.
In another inflammation model, mice were randomized into groups of two animals to receive the treatments. Mice were challenged with plitidepsin (1 mg/kg) intra venous (i.v.) followed by Resiquimod (50 μg/mouse, intranasal) 1 hour latter. The control group received plitidepsin vehicle (Cremophor/Ethanol/Water) diluted with saline. One and 3 hours later, animals were euthanized, bronchoalveolar lavage collected (a total of 1.2 ml, PBS) and then, TNFα quantified by ELISA kits.

[14] = Mouse (F) C57BL6/J, 1.0 mg/kg single intravenous bolus, plasma
[15] = individual patients, PLD 2.0 mg×3
[16] = BAL cells 12 hours after, ex vivo 15 μg/mL LPS-B5 for 3 or 6 hours, listed as plitidepsin, 1 mg/kg
[17] = Human (M/F), 0.135 mg/kg (Recommended Dose 5 mg/m2, 3-h intravenous infusion)
[18] = Human, 0.02 mg/kg (1.5 mg/patient), following 3 daily doses, estimated from population PK model

Substance: (−)-(3S,6R,7S,10R,11S,15S,17S,20S,25aS)-11-hydroxy-3-(4-methoxybenzyl)-2,6,17-trimethyl-15-(1-methylethyl)-7-[[(2R)-4-methyl-2-[methyl[[(2S)-1-(2-oxopropanoyl)pyrrolidin-2-yl]carbonyl]amino]pentanoyl]amino]-10-[(1S)-1-methylpropyl]-20-(2-methylpropyl)tetradecahydro-15H-pyrrolo[2,1-f]-[1,15,4,7,10,20]dioxatetrazacyclotricosine-1,4,8,13,16,18,21(17H)-heptone [PLD]
- cytotoxic effects (CD45+ alive cells in bronchoalveolar lavage) [1]: without cytotoxic effects
- percentage of macrophages present in bronchoalveolar lavage [1]: decrease
- physical, chemical and microbiological stability of reconstituted concentrated solution ([2]; original vial under indoor light at room temperature): 6 hours
- physical, chemical and microbiological stability of reconstituted concentrated solution ([2]; refrigerated conditions (5° C.±3° C.)): 24 hours
- stability of the drug (2 mg vial, powder) ([2]; stored between 2° C. and 8° C., in outer carton protected from light): 60 months
- lung-to-plasma ratio (lungAUC0-∞/plasmaAUC0-∞) [3]: 460
- AUC0-∞ [4, 14]: 225.3 ng·h/mL
- Cl [4, 14]: 73.3 mL/min/kg
- Cmax [4, 14]: 50.7 ng/mL
- Vdss [4, 14]: 101.8 L7 kg
- t1/2 [4, 14]: 18.2 h
- Maximum Tolerated Dose ([4]; Mouse (F) C57BL6/J, single intravenous bolus): 1.0^a mg/kg
- lung-to-plasma ratio (lungAUC0-∞/plasmaAUC0-∞) ([4]; mice, single intravenous dose 1.0 mg/kg): 133
- tolerability ([5]; 45 patients, 1.5, 2.0 and 2.5 mg daily for 3 days, all 3 dose cohorts): well tolerated
- Hospital discharge by day [5, 15]: ≤ 10 days and ≤ 8 days
- PCR COVID 19 test converted to negative by day [5, 15]: ≤ 15 day and ≤ 7 day and still positive at day 7
- clinical outcome [5, 15]: major clinical improvement
- patients discharged by Day 15 ([5]; mild disease, across dose cohorts (9/9)): 100%
- patients discharged by Day 15 ([5]; moderate disease, across dose cohorts (23/28)): 82%
- Bilateral pneumonia resolved by day ([5]; patient 5, PLD 1.5 mg×3): ≤ 6 days
- C-reactive protein ([5]; patient 5, PLD 1.5 mg×3): acute fall is seen by day 2
- C-reactive protein ([5]; patients 7 and 9, PLD 2.0 mg×3): acute fall is seen by day 3
- patients discharged by Day 15 ([5]; severe disease, across dose cohorts (4/7)): 57%
- production of luciferase (NF-κB transactivation) [6]: clearly inhibited
- production of IL-1 [7]: clearly inhibited
- production of IL-6 [7]: clearly inhibited
- production of IL-8 [7]: clearly inhibited
- production of TNFα [7]: clearly inhibited
- secretion of IL-10 induced by LPS-B5 ([8]; BAL cells 12 hours after, ex vivo 15 μg/mL LPS-B5 for 3 or 6 hours): significantly reduce
- secretion of IL-6 induced by LPS-B5 [8, 16]: clearly inhibited; also recorded: significantly reduce
- secretion of TNFα induced by LPS-B5 [8, 16]: clearly inhibited; also recorded: significantly reduce
- cell viability of CD45+ cells from bronco-alveolar lavages ([8]; LPS-B5 ex vivo): unrelated to cell viability
- secretion of IL1β [9]: inhibited
- secretion of IL6 [9]: inhibited
- secretion of IL8 [9]: inhibited
- secretion of TNF-α [9]: inhibited
- Survival (MTT assay), cytotoxic effect [10]: No cytotoxic effect
- lung-to-plasma ratio (lungAUC0-∞/plasmaAUC0-∞) [11]: 909
- AUC0-∞ [12, 17]: 256.0 ng·h/mL
- Cl [12, 17]: 12 to 15 mL/min/kg
- Cmax [12, 17]: 29.1 ng/mL
- Vdss [12, 17]: 29-33 L7 kg
- t1/2 [12, 17]: 20 to 80 h
- AUC0-∞ [12, 18]: 174.0^d ng · h/mL
- Cmax [12, 18]: 8.5^d ng/mL
- production of TNFα in BALF [13]: prevented the increased production
